{"source": "patent US20260256860A1", "about": "“TRADITIONAL CHINESE MEDICINE COMPOSITION FOR TREATING AMYOTROPHIC LATERAL SCLEROSIS AND USE THEREOF” (HEBEI YILING MEDICAL RESEARCH INSTITUTE CO., LTD, priority 2023, published 2026)", "assay_type_in_all_cases": "in vivo", "key": {"[1]": {"test_system": "SOD1-G93A transgenic mice", "experiment": "Time to onset of paralysis in SOD1-G93A transgenic mice", "settings": "Riluzole 0.02 g/kg gavage", "quoted_text": "Neurological function was evaluated during the dosing phase using the Snow scoring method twice weekly. […]\nThe time from administration to the first occurrence of a neurological function score ≥3.5 was defined as the time to onset of paralysis. The mean time to onset of paralysis of animals was calculated. […] The paralysis delay rate for each drug group was also calculated according to the following formula:\nThe time from administration to the first occurrence of a neurological function score ≥3.5 was defined as the time to onset of paralysis. The mean time to onset of paralysis of animals was calculated. […]"}, "[2]": {"test_system": "SOD1-G93A transgenic mice", "experiment": "Neurological function score (Snow scoring) in SOD1-G93A transgenic mice", "settings": "Riluzole 0.02 g/kg gavage", "procedure": "(§1) After ALS model mice were determined to have significant changes compared to negative control mice in behavioral test by combining literature as well as prior experience, they were randomly grouped according to their body weight. The drug administration was started and mice were observed.\n(§2) The corresponding drug solution was administered via gavage using a syringe at a volume of 10 ml/kg. The model group and negative control group were administered with an equivalent volume of sterile injectable water. The administration dose for each animal was adjusted weekly according to the animal's latest weighed weight.\nNeurological function was evaluated during the dosing phase using the Snow scoring method twice weekly. The specific criteria for neurological system scoring are as follows. • 1.0 point—Abnormal extension or tremors of hind limbs of the mouse when suspended by tail. • 1.5 points—Weakness of unilateral hind limb • 2.0 points—Weakness of bilateral hind limbs along with abnormal gait. • 2.5 points—Obvious weakness of unilateral hind limb. • 3.0 points—Obvious weakness of bilateral hind limbs. • 3.5 points—Paralysis in unilateral hind limb. • 4.0 points—Paralysis in bilateral hind limbs. • 5.0 points—Inability of mouse to right itself from a supine position within 20 seconds."}, "[3]": {"test_system": "SOD1-G93A transgenic mice", "experiment": "Hanging test in SOD1-G93A transgenic mice", "settings": "Riluzole 0.02 g/kg gavage, 90 second cut-off", "procedure": "as §1, §2\n• 2.6.1 The tail suspension test was carried out to observe straightening reflex of limbs. […] The scoring criteria are as follows: • 0 points—No flexion of the hindlimbs observed. • 1 point—Flexion observed in unilateral hindlimb, with no obvious flexion in the other. • 2 points—Flexion observed in bilateral hindlimbs. Mice with a score of 2 points were considered to be in the symptomatic phase. The tail suspension test was stopped when all ALS mice reached a score of 2 points. • 2.6.2 Hanging Test: The mouse was placed on a 3-mesh screen. The screen was then rapidly inverted, causing the mouse to hang upside down, and the timer was started. A 90 second cut-off time was set. The mice with a hanging time of less than 90 seconds were noted, and the actual time they remained hanged was recorded. The hanging test was discontinued upon the occurrence of death in ALS mice. […] The severity of this abnormality correlates with the degree of muscle atrophy and loss of muscle strength. In this study, the onset of disease in transgenic mice was determined based on the results of the tail suspension test. Additionally, guided by literature review and previous experimental experience, each mouse was sequentially evaluated by both the tail suspension and hanging tests."}, "[4]": {"test_system": "SOD1-G93A transgenic mice", "experiment": "Compound muscle action potential electrophysiology in SOD1-G93A transgenic mice", "settings": "Riluzole 0.02 g/kg gavage, 30 days", "procedure": "• 1.3.1 Animal Strain: B6SJL-Tg (SOD1-G93A) 1 Gur/J (Stock Number: 002726) provided by The Jackson Laboratory (United States). […] Both males and females were included. • 1.3.4 Animal Age: 7-8 weeks old. • 1.3.5 Animal Weight: At the start of dosing the body weight of male mice was 23.9-31.3 g, and the body weight of female mice was 17.7-25.4 g. • 1.3.6 Animal Source: Purchased from The Jackson Laboratory (United States). Breeding was conducted by Jiangsu GemPhanmatech Co., Ltd. • 1.3.7 Animal Certification of Quality, issuing authority, and receipt date: Certification number 320727210100609023. License number SCXK (Jiangsu) 2018-0008. Issuing authority: Jiangsu GemPharmatech Co., Ltd. Receipt date: Oct. 13, 2021. • 1.3.8 Feeding Conditions: Mice were reared in cages at the Innovative Drug Evaluation Center of Hebei Research Institute of Integrated Traditional Chinese and Western Medicine. License Number: SYXK (Hebei) 2020-006. Lighting: 12 h/day. Temperature: 20-26° C. Relative Humidity: 40%-70%. • 1.3.9 Quarantine Process: Animals were subjected to adaptive feeding for at least 5 days. […] Experimental Animal Production License Number: SCXK (Beijing) 2019-0003. Product Batch Number: 21073213. Expiration date: 2022 Jan. 3. • 1.3.11 Water: Clean water prepared by the ROB-B drinking water system for laboratory animal was provided, and filled in water bottles for free drinking. The drinking water was detected annually for all indicators, including mainly microbiological indicators, toxicological indicators, sensory characteristics, and general chemical parameters, and the detection was commissioned to a qualified institution. Microbial limit detection was performed every 2 months, which was commissioned to the Quality Control Department of Shijiazhuang Yiling Pharmaceutical Co., Ltd. The detection reports were stored by the animal department and archived annually. • 1.3.12 Bedding: Corn cob bedding (common grade) provided by Beijing Keao Xieli Feed Co., Ltd., was sterilized by high temperature and high pressure before use. Experimental Animal Production License Number: SCXK (Beijing) 2020-0010. Batch Number: 21099811. • 1.3.13 Marking: Mice were marked with ear tags, provided by Globalebio (Beijing) Technology Co., Ltd.\nas §1\nThe drug was orally administered via gavage, consistent with the clinically recommended oral administration.\nThe administration dose for mice was 10 times the clinical dose, approximately 0.02 g/kg. The used administration volume was 10 ml/kg and administration concentration was 0.02 g/10 ml. […] During the preparation, one tablet was taken, ground with sterile injectable water and adjusted to a final volume of 25 ml. The obtained liquor can be used based on the number of animals.\nThe proposed clinical dose of TCM-073 was 18 g of raw drug/day. This test set three doses: low dose (1.5 g raw drug/kg), medium dose (3.0 g raw drug/kg), and high dose (6.0 g raw drug/kg), corresponding to 5, 10, and 20 times the clinical dose, respectively (See Table 14 for details). An appropriate amount of the drug was weighed and ground using sterile injectable water as the solvent to prepare high, medium, and low doses.\nas §2\nBased on preliminary experimental experience, literature review, and the disease characteristics of this mouse strain, the administration was started when the mice were 70 days old. […]"}, "[5]": {"test_system": "SOD1-G93A transgenic mice", "experiment": "Serum malondialdehyde (MDA) in SOD1-G93A transgenic mice", "settings": "Mus musculus, po, 720 h; read-out: % Inhibition rate (on oxidative damage, from MDA content)", "quoted_text": "Blood of mice was collected by removal of eyeball. The blood samples were allowed to stand until supernatant separated out, and then centrifuged at 3,000 rpm for 10 minutes at 4° C. to isolate serum. The serum was aliquoted into EP tubes and stored in an ultra-low temperature refrigerator (−80° C.). MDA content was measured. The inhibition rate on oxidative damage by each drug group was calculated according to MDA content, following the formula of.\nBlood of mice was collected by removal of eyeball. Blood samples were allowed to stand until supernatant separated out, and then centrifuged at 3,000 rpm for 10 minutes at 4° C. to isolate serum. The MDA content was measured using a kit, and the inhibition rate on oxidative damage by each drug group was calculated according to MDA content."}, "[6]": {"test_system": "SOD1-G93A transgenic mice", "experiment": "HE staining of sciatic nerve, lesion grading, SOD1-G93A transgenic mice", "design": "key to Axonal degeneration with myelin degeneration, lesion grade of individual animal: mild (+); moderate (++); moderately severe (+++); severe (++++)", "settings": "for Lesion score (divided by gender): median of lesion grade points; for Axonal degeneration with myelin degeneration, lesion grade of individual animal: sciatic nerve HE, individual animals, listed as Positive drug control group", "procedure": "as §1, §2\n(§3) After 30 days of administration, electrophysiological measurements were performed, and tissue material was collected for subsequent detections. • 2.7.1 Electrophysiological parameters\nHE staining was carried out to observe gastrocnemius muscle and sciatic nerve. Toluidine blue staining was carried out to observe the morphology and number of motor neurons in the spinal cord. • 2.7.4 Immunofluorescence"}, "[7]": {"test_system": "SOD1-G93A transgenic mice", "experiment": "Immunofluorescence of gastrocnemius muscle and spinal cord, SOD1-G93A transgenic mice", "settings": "vs model control; Riluzole 0.02 g/kg; TCM-073 each administration group (1.5, 3.0, 6.0 g raw drug/kg); 30 days", "procedure": "as §1, §2, §3\nBased on the amount of spinal cord and muscle tissues harvested from mice, neuromuscular junction, stem cell regeneration, microglial senescence and degree of myelin and neuronal damage and repair were detected. For example, the muscular presynaptic marker (synaptotagmin-2) and the acetylcholine receptor (AChR) marker (α-BTX) were co-stained, the satellite cell marker (Pax7) and laminin 2a were co-stained, the myelin marker (myelin basic protein, MBP) was stained, and the neuronal marker (beta-III Tubulin, also known as Tuj-1) was stained. • 2.7.5 Molecular biological indicators\nThe muscular presynaptic marker (synaptotagmin-2) and acetylcholine receptor (AChR) marker (α-BTX) of the gastrocnemius muscle were detected by the immunofluorescence.\nThe satellite cell marker (Pax7) and laminin 2α of the gastrocnemius muscle were detected by the immunofluorescence.\nThe myelin marker (myelin basic protein, MBP) of the spinal cord was detected by the immunofluorescence.\nThe neuronal marker (beta-III Tubulin, also known as Tuj-1) of the spinal cord was detected by the immunofluorescence."}, "[8]": {"test_system": "SOD1-G93A transgenic mice", "experiment": "Immunoblotting of MBP and SV2A in spinal cord, SOD1-G93A transgenic mice", "settings": "Riluzole 0.02 g/kg gavage, 30 days, negative control 1.00", "procedure": "as §1, §2, §3\nBased on the amount of spinal cord tissue harvested from mice, myelin- and synapse-related molecular biological indicators were detected. The myelin- and synapse-related indicators included myelin basic protein (MBP) and synaptic vesicle protein 2A(SV2A).\nBased on the amount of spinal cord tissue harvested from mice, myelin- and synapse-related molecular biological indicators, including myelin basic protein (MBP) and synaptic vesicle protein 2A (SV2A), were detected."}, "[9]": {"settings": "Riluzole 0.02 g/kg gavage, female"}, "[10]": {"settings": "Riluzole 0.02 g/kg gavage, male"}}, "note": "“And” between values parts separate entries of the source, which are not always exact repeats. Equal entries are not always repeated."}
{"smiles": "Nc1nc2ccc(OC(F)(F)F)cc2s1", "note": "[Riluzole]", "values": [{"measurement": "Time to onset of paralysis", "setting": "[1]; female", "result": "139.6 ± 5.7", "unit": "days"}, {"measurement": "Time to onset of paralysis", "setting": "[1]; male", "result": "129.2 ± 18.9", "unit": "days"}, {"measurement": "Neurological function score", "setting": "[2]; 31 d of administration", "result": "2.2 ± 0.4"}, {"measurement": "Neurological function score", "setting": "[2]; 34 d of administration", "result": "2.2 ± 0.4"}, {"measurement": "Neurological function score", "setting": "[2]; 39 d of administration", "result": "2.2 ± 0.5"}, {"measurement": "Neurological function score", "setting": "[2]; 42 d of administration", "result": "2.3 ± 0.5"}, {"measurement": "Neurological function score", "setting": "[2]; 46 d of administration", "result": "2.2 ± 0.4"}, {"measurement": "Hanging time", "setting": "[3]; 31 d of administration", "result": "63.3 ± 29.2", "unit": "s"}, {"measurement": "Hanging time", "setting": "[3]; 34 d of administration", "result": "57.6 ± 2.6", "unit": "s"}, {"measurement": "Hanging time", "setting": "[3]; 39 d of administration", "result": "46.5 ± 29.8", "unit": "s"}, {"measurement": "Hanging time", "setting": "[3]; 42 d of administration", "result": "40.8 ± 30.7", "unit": "s"}, {"measurement": "Hanging time", "setting": "[3]; 46 d of administration", "result": "33.8 ± 27.2", "unit": "s"}, {"measurement": "Peak value of action potential", "setting": "[4]; female", "result": "10.4 ± 4.0"}, {"measurement": "Time course within region of interest of action potential", "setting": "[4]; female", "result": "0.0018 ± 0.0002"}, {"measurement": "Wave amplitude of action potential", "setting": "[4]; female", "result": "14.8 ± 5.6"}, {"measurement": "Peak value of action potential", "setting": "[4]; male", "result": "8.8 ± 2.2"}, {"measurement": "Time course within region of interest of action potential", "setting": "[4]; male", "result": "0.0016 ± 0.0001"}, {"measurement": "Wave amplitude of action potential", "setting": "[4]; male", "result": "11.2 ± 3.9"}, {"measurement": "Peak value of action potential", "setting": "[4]; no division by gender", "result": "9.6 ± 3.3"}, {"measurement": "Time course within region of interest of action potential", "setting": "[4]; no division by gender", "result": "0.0017 ± 0.0002"}, {"measurement": "Wave amplitude of action potential", "setting": "[4]; no division by gender", "result": "13.0 ± 5.0"}, {"measurement": "inhibition at 20 mg/kg", "setting": "[5]", "result": 20, "unit": "%"}, {"measurement": "Sciatic nerve axonal degeneration with myelin degeneration, number of samples per lesion grade", "setting": "[6]; Riluzole 0.02 g/kg gavage, 6 samples", "result": "myelin degeneration (1 sample: +++, 4 samples: ++, 1 sample: +)."}, {"measurement": "Lesion score (divided by gender)", "setting": "[6]; [9]", "result": 2}, {"measurement": "Lesion score (divided by gender)", "setting": "[6]; [10]", "result": 2}, {"measurement": "Group Score (lesion)", "setting": "[6]; Riluzole 0.02 g/kg gavage, median of lesion grade points of the group", "result": 2}, {"measurement": "Axonal degeneration with myelin degeneration, lesion grade of individual animal", "setting": "[6]; [9]", "result": "+ and ++ (2×)"}, {"measurement": "Axonal degeneration with myelin degeneration, lesion grade of individual animal", "setting": "[6]; [10]", "result": "++ (2×) and +++"}, {"measurement": "Sciatic nerve pathological changes (HE staining) compared to the model control group", "setting": "[6]; Riluzole 0.02 g/kg, TCM-073 high dose 6.0 g raw drug/kg", "result": "slightly milder"}, {"measurement": "Co-localization degree of synaptotagmin-2 and α-BTX (neuromuscular junction), gastrocnemius muscle", "setting": "[7]", "result": "increased the co-localization degree of neuromuscular junctions"}, {"measurement": "MBP (myelin marker) expression in spinal cord, immunofluorescence", "setting": "[7]", "result": "increased the expression levels of the myelin marker"}, {"measurement": "Number of Pax7-positive satellite cells in the gastrocnemius muscle", "setting": "[7]", "result": "increased the number of positive satellite cells in the gastrocnemius muscle"}, {"measurement": "Tuj-1 (neuronal marker) expression in spinal cord, immunofluorescence", "setting": "[7]", "result": "increased the expression levels of the myelin marker and neuronal marker"}, {"measurement": "MBP content in spinal cord", "setting": "[8]", "result": "0.99 ± 0.62"}, {"measurement": "SV2A content in spinal cord", "setting": "[8]", "result": "0.41 ± 0.15"}]}
